# In patent US12172989B2, “Histone acetyltransferase (HAT) inhibitor and use thereof” (SHANGHAI INSTITUTE OF MATERIA MEDICA, CHINESE ACADEMY OF …, priority 2018, dated 2024):
# Assays:
# [1] = target: T1, histone acetyltransferase p300 (Homo sapiens, UniProt Q09472); test: Histone acetyltransferase (p300) activity assay (radioisotope, [3H]-Ac-CoA); type: biochemical; conditions: p300 0.05 nM; histone peptide 600 nM, [3H]-Ac-CoA 250 nM; 60 min at room temperature; read-out: Inhibition rate IC50
# T1 construct: purchased BPS Corporation 50071
# T1 sequence (Q09472 1284-1673 limits assumed): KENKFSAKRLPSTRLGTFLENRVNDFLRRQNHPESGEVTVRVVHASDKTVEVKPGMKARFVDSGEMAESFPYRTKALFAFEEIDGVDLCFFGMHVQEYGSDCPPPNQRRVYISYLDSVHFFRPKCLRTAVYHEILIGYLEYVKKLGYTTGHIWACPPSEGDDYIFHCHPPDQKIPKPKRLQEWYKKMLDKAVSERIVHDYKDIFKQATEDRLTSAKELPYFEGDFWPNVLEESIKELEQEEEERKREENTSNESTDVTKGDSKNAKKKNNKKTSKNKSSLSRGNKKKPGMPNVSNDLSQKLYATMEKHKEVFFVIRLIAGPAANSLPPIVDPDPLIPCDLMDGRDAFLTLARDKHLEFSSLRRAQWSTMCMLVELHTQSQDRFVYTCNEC
# Experimental: The reaction was finally terminated with Ac-CoA (Sigma, Cat. No. A2056) without isotope labeling. If the activity of the acetyltransferase p300 was inhibited, the isotope signal cannot be detected on the substrate polypeptide. Therefore, the inhibitory activity of the compound against the acetyltransferase p300 was evaluated.
# In the enzyme reaction system, 200 nL of a diluted compound (100% DMSO) was first transferred to a test plate using Echo, where the final concentration of the compound in the enzyme reaction system ranges from 0.25 to 5000 nM. Then 10 μL/well of p300 protein (final concentration of 0.05 nM) was transferred therein, and incubated with the compound for 15 min at room temperature. Then 10 μL/well of a substrate mixture (final concentrations of histone peptide and [^3H]—Ac-CoA were 600 nM and 250 nM, respectively) was added to start the enzyme-catalyzed reaction, and incubated at room temperature for 60 min. Then 10 µL/well of a 250 μM cold Ac-CoA solution was added to stop the reaction. Finally 25 μL/well of the reaction solution was transferred to a 384-well Flashplate (Perkin Elmer, Cat. No. SMP410A001PK), and incubated at room temperature for 1 h. The resultant was washed with double distilled water+0.1% Tween-20 three times. The signal value was read by using Microbeta. The data was analyzed by using GraphPad Prism 5.0 software to obtain IC50.
# [2] = tested on: Human castration resistant prostate cancer cell line LNCaP clone FGC; test: Cell growth inhibition experiment (CellTiter-Glo), LNCaP clone FGC; type: cell-based; conditions: Homo sapiens, 120 h, LNCaP clone FGC cells treated with the compound for 5 days
# Experimental: (§1) Human castration resistant prostate cancer cell line 22Rv1 and LNCaP clone FGC (22Rv1 cell line was from ATCC, CRL-2505, LNCaP clone FGC cell line was purchased from Cell Bank of the Chinese Academy of Sciences) were cultured with RPMI 1640 medium (Gibco, available from Life Technologies Corporation, 22400-089) containing 10% fetal bovine serum (Gibco, available from Life Technologies, 10099-141) and 1% antibiotics (penicillin and streptomycin, available from Life Technologies Corporation, 10378016) in a CO2 cell incubator (37° C., 5% CO2). In the cell growth inhibition experiment, 22Rv1 and LNCaP clone FGC cells in exponential growth phase were seeded on a 96-well plate (purchased from Corning Company, 3599) with a volume of 150 μL/well and a cell density of 1,500 cells/well. After seeded, the plate was placed in a CO2 incubator to incubate overnight to allow the cells to adhere. On the next day, 50 μL of a compound at different concentrations diluted in 3-fold gradient or DMSO were added in a 96-well plate containing the cells. The final concentration of the compound ranges from 0.3 to 10000 nM, and the final concentration of DMSO is 0.05% as control group. The cells were treated by the compound for 5 days. Cell viability was measured using CellTiter-Glo reagent (purchased from Promega, G7572): the cell treated with the compound for 5 days was added with CellTiter-Glo reagent at 40 μL/well, incubated at room temperature for 10 min, transferred to a white 96-well plate (OptiPlate-96, purchased from PerkinElmer, 605299) by 70 μL. Subsequently, the luminescence signal was detected using a multifunctional microplate reader EnVision (purchased from PerkinElmer) at a wavelength of 400-700 nm. The data was analyzed by using GraphPad Prism 5.0 software to obtain IC50.
# [3] = tested on: Human castration resistant prostate cancer cell line 22Rv1; test: Cell growth inhibition experiment (CellTiter-Glo), 22Rv1; type: cell-based; conditions: Homo sapiens, 120 h, 22Rv1 cells treated with the compound for 5 days
# Experimental: as §1
# [4] = tested on: human mantle cell lymphoma (MCL) cell line MAVER-1; test: Cell growth inhibition experiment (CellTiter-Glo), MAVER-1; type: cell-based; conditions: Homo sapiens, Maver1, 120 h, MAVER-1 cells treated with the compound for 5 days
# Experimental: The human mantle cell lymphoma (MCL) cell line MAVER-1 (from ATCC, CRL-3008) was cultured with RPMI 1640 medium (Gibco, available from Life Technologies Corporation, 22400-089) containing […] (Gibco, available from Life Technologies, 10099-141) and 1% antibiotics (penicillin and streptomycin, available from Life Technologies Corporation, 10378016) in a CO2 cell incubator (37° C., 5% CO2). In the cell growth inhibition experiment, MAVER-1 cells in exponential growth phase were seeded on a 96-well plate (purchased from Corning Company, 3599) in a volume of 100 μL/well and a cell density of 1*10E5 cells/well. After seeded, the plate was placed in a CO2 incubator to culture for 1 h. 100 μL of a compound at different concentrations diluted in 3-fold gradient or DMSO were added in a 96-well plate containing the cells. The final concentration of the compound ranges from 0.3 to 10000 nM, and the final concentration of DMSO is 0.05% as control group. The cells were treated with the compound for 5 days. Cell viability was measured using CellTiter-Glo reagent (purchased from Promega, G7572): the cells treated with the compound for 5 days was added with CellTiter-Glo reagent at 20 μL/well, incubated at room temperature for 10 min, transferred to a white 96-well plate (OptiPlate-96, purchased from PerkinElmer, 605299) by 80 μL. Subsequently, the luminescence signal was detected by using a multifunctional microplate reader EnVision (purchased from PerkinElmer) at a wavelength of 400-700 nm. The data was analyzed by using GraphPad Prism 5.0 software to obtain IC50.
Structure (SMILES),IC50 [1],IC50 [2],IC50 [3],IC50 [4]
CNC(=O)Nc1ccc2c(c1)CC[C@@]21OC(=O)N(CC(=O)N2Cc3ccccc3OC[C@H]2C)C1=O [SYY-B014-2],12 nM,78 nM,–,–
CNC(=O)Nc1ccc2c(c1)CC[C@]21OC(=O)N(CC(=O)N2Cc3ccccc3CC[C@H]2C(F)(F)F)C1=O [SYY-B027-1],9.1 nM,48 nM,40 nM,–
CNC(=O)Cn1cc(-c2ccc3c(c2)CCC32NC(=O)N(CC(=O)N3Cc4ccc(F)cc4CC[C@H]3C3CC3)C2=O)cn1 (stereo partly shown) [SYY-B045],< 5 nM,–,< 100 nM,–
CNC(=O)Nc1ccc2c(c1)OCCC21NC(=O)N(CC(=O)N2Cc3ccc(F)cc3CC[C@H]2C2CC2)C1=O (stereo partly shown) [SYY-B074],< 10 nM,–,–,< 20 nM
CNC(=O)Nc1ccc2c(c1)OCCC21OC(=O)N(CC(=O)N2Cc3ccc(F)cc3CC[C@H]2C2CC2)C1=O (stereo partly shown) [SYY-B077],< 5 nM,–,< 20 nM,< 20 nM
CNC(=O)Nc1ccc2c(c1)CCC21NC(=O)N(CC(=O)N2Cc3cc(F)ccc3OC[C@H]2C(F)(F)F)C1=O (stereo partly shown) [SYY-B083],< 20 nM,–,< 100 nM,< 50 nM
Cn1cc(-c2ccc3c(c2)CCC32OC(=O)N(CC(=O)N3Cc4cc(F)ccc4OC[C@H]3C(F)(F)F)C2=O)cn1 (stereo partly shown) [SYY-B084],< 20 nM,–,< 100 nM,< 20 nM
Cn1cc(-c2ccc3c(c2)CCC32NC(=O)N(CC(=O)N3Cc4cc(F)ccc4OC[C@H]3C(F)(F)F)C2=O)cn1 (stereo partly shown) [SYY-B085],< 20 nM,–,< 50 nM,< 10 nM
CNC(=O)Nc1ccc2c(c1)CCCC21OC(=O)N(CC(=O)N2Cc3cc(F)ccc3OC[C@H]2C2CC2)C1=O (stereo partly shown) [SYY-B086],< 10 nM,–,< 20 nM,≤ 20 nM
CNC(=O)Nc1ccc2c(c1)CCCC21NC(=O)N(CC(=O)N2Cc3cc(F)ccc3OC[C@H]2C2CC2)C1=O (stereo partly shown) [SYY-B092],< 20 nM,–,–,< 20 nM
Cn1cc(-c2ccc3c(c2)CCCC32NC(=O)N(CC(=O)N3Cc4cc(F)ccc4OC[C@H]3C3CC3)C2=O)cn1 (stereo partly shown) [SYY-B093],< 20 nM,–,< 20 nM,< 20 nM
CNC(=O)Nc1ccc2c(c1)OCCC21NC(=O)N(CC(=O)N2Cc3cc(F)ccc3OC[C@H]2C2CC2)C1=O (stereo partly shown) [SYY-B099],< 20 nM,–,121 nM,–
Cn1cc(-c2cc3c(cn2)C2(CC3)NC(=O)N(CC(=O)N3Cc4cc(F)ccc4OC[C@H]3C(F)(F)F)C2=O)cn1 (stereo partly shown) [SYY-B161],< 100 nM,–,–,–
Cn1cc(-c2cnc3c(c2)CCC32NC(=O)N(CC(=O)N3Cc4cc(F)ccc4OC[C@H]3C(F)(F)F)C2=O)cn1 (stereo partly shown) [SYY-B163],< 20 nM,–,–,–
Cn1cc(-c2ccc3c(n2)CCC32NC(=O)N(CC(=O)N3Cc4cc(F)ccc4OC[C@H]3C(F)(F)F)C2=O)cn1 (stereo partly shown) [SYY-B165],< 20 nM,–,–,–
Cn1cc(-c2ccc3c(c2)C(O)C[C@]32NC(=O)N(CC(=O)N3Cc4cc(F)ccc4OC[C@H]3C3CC3)C2=O)cn1 (stereo partly shown) [SYY-B170-2],< 20 nM,–,–,–
CNC(=O)Nc1ccc2c(c1)CCC21NC(=O)N(CC(=O)N2Cc3cc(F)ccc3OC[C@H]2C2CC2)C1=O (stereo partly shown) [ZB-P-21],< 20 nM,–,< 100 nM,< 50 nM
Cn1cc(-c2ccc3c(c2)CCC32NC(=O)N(CC(=O)N3Cc4cc(F)ccc4OC[C@H]3C3CC3)C2=O)cn1 (stereo partly shown) [ZB-P-28],< 10 nM,–,< 10 nM,< 10 nM
Cn1cc(-c2ccc3c(c2)CCC32OC(=O)N(CC(=O)N3Cc4cc(F)ccc4OC[C@H]3C3CC3)C2=O)cn1 (stereo partly shown) [ZB-P-29],< 10 nM,–,< 10 nM,< 10 nM
CNC(=O)Nc1cc2c(cc1F)C1(CC2)NC(=O)N(CC(=O)N2Cc3ccc(F)cc3CC[C@H]2C2CC2)C1=O (stereo partly shown) [ZB-P-30],< 10 nM,–,–,–
CNC(=O)Nc1cc2c(cc1F)C1(CC2)OC(=O)N(CC(=O)N2Cc3ccc(F)cc3CC[C@H]2C2CC2)C1=O (stereo partly shown) [ZB-P-31],< 5 nM,–,–,–

# The remaining lines, values ahead:
IC50 [1],IC50 [2],IC50 [3],IC50 [4],Structure (SMILES)
4.8 nM,78 nM,127 nM,–,CNC(=O)Nc1ccc2c(c1)CCC21NC(=O)N(CC(=O)N2Cc3ccc(F)cc3CC[C@H]2C2CC2)C1=O (stereo partly shown) [SYY-B033]
< 5 nM,–,< 300 nM,–,NC1(C(=O)Nc2ccc3c(c2)CC[C@]32OC(=O)N(CC(=O)N3Cc4ccc(F)cc4CC[C@H]3C3CC3)C2=O)CC1 [SYY-B035-1]
< 5 nM,–,< 300 nM,–,NC1(C(=O)Nc2ccc3c(c2)CC[C@@]32OC(=O)N(CC(=O)N3Cc4ccc(F)cc4CC[C@H]3C3CC3)C2=O)CC1 [SYY-B035-2]
1.5 nM,13 nM,64 nM,–,CC(C)(N)C(=O)Nc1ccc2c(c1)CC[C@]21OC(=O)N(CC(=O)N2Cc3ccc(F)cc3CC[C@H]2C2CC2)C1=O [SYY-B037-1]
1 nM,6 nM,13 nM,–,CC(C)(N)C(=O)Nc1ccc2c(c1)CC[C@@]21OC(=O)N(CC(=O)N2Cc3ccc(F)cc3CC[C@H]2C2CC2)C1=O [SYY-B038-1]
1.9 nM,52 nM,74 nM,–,NC1(C(=O)Nc2ccc3c(c2)CC[C@]32OC(=O)N(CC(=O)N3Cc4ccc(F)cc4CC[C@H]3C3CC3)C2=O)CCC1 [SYY-B039-1]
1.2 nM,15 nM,36 nM,–,NC1(C(=O)Nc2ccc3c(c2)CC[C@@]32OC(=O)N(CC(=O)N3Cc4ccc(F)cc4CC[C@H]3C3CC3)C2=O)CCC1 [SYY-B039-2]
4.3 nM,< 100 nM,< 100 nM,–,Cn1cc(-c2ccc3c(c2)CC[C@]32OC(=O)N(CC(=O)N3Cc4ccc(F)cc4CC[C@H]3C3CC3)C2=O)cn1 [SYY-B041-1]
< 5 nM,–,< 50 nM,–,Cn1cc(-c2ccc3c(c2)CCC32NC(=O)N(CC(=O)N3Cc4ccc(F)cc4CC[C@H]3C3CC3)C2=O)cn1 (stereo partly shown) [SYY-B043]
2.4 nM,–,10.5 nM,65 nM,CNC(=O)Nc1ccc2c(c1)CC[C@@]21OC(=O)N(CC(=O)N2Cc3cc(F)ccc3OC[C@H]2C(F)(F)F)C1=O [SYY-B057-2]
